The record followed here is patent US10927075B2, “Compositions and methods relating to the treatment of cancer, autoimmune disease, and neurodegenerative disease” (THE JACKSON LABORATORY, priority 2014, dated 2021).

Series [1] concerns HEK293T cells. The series can be described thus: Sister chromatid exchange assay. In kind it is cell-based, human. The note with it: 100 nM, relative to DMSO vehicle. From the text: C-1523 inhibits Sister Chromatid Exchange. […] To directly measure the effect of C-1523 on RAD51-mediated homologous recombination, we measured sister chromatid exchange and HR repair of an endonuclease generated DSB. Sister chromatid exchange (SCE) is a RAD51-mediated homologous recombination event between replicated sister chromatids in replicative or post-replicative cells, and reflects repair of replication-associated DNA damage. SCE can be measured following differential chromatid labeling by BrdU incorporation (Latt and Schreck, 1980). SCE is known to occur at a high rate in HEK293T cells, with approximately 0.25 spontaneously occurring exchange events per chromosome (FIGS. 14A, 14C) (Londono-Vallejo et al., 2004).
Propidium Iodide and flow cytometry.

Series [2] deals with WT, AID−/−, or Trp53−/− B-cells. The series can be described thus: Active caspase-3 (AC3) immunofluorescence. Particulars: 100 nM, 3 days after activation. In kind it is cell-based, mouse. The protocol: FIG. 16A depicts the measurement of viability of primary WT (AID+/+, circle markers), AID−/− (square markers), and p53−/− (triangle markers) B cells under activating conditions (αCD40 and IL-4 on days 0 and 2) and treated with either DMSO (filled in markers) or 100 nM C-1523 (open markers). Measurement of cell viability was determined by Trypan Blue staining and counting of viable, non-staining, cells via hemocytometer. Data are represented as the mean cell count for each condition. FIG. 16B depicts analysis of cell death on day 4 of cells treated as in FIG. 16A. Cell death was measured by Trypan Blue staining and counting of blue, dead cells via hemocytometer. FIG. 16C depicts quantitation of active caspase-3 (AC3) in primary B cells via immunofluorescence assay. Left, positive (WT, 10 Gy IR) and negative (0 Gy, and p53−/− 10 Gy) controls for AC3 induction. […]
Cell death mediated by C-1523 is p53-dependent. […] To test the importance of p53, a central regulator of cellular responses to DNA damage, viability was measured in mouse primary B-cells from Trp53+/+ versus Trp53−/− mice following exposure to C-1523. […] Caspase 3 activation, a marker of apoptotic cell death, was measured in C-1523 treated B-cells. B-cells were stained with an antibody that recognizes cleaved, activated caspase-3 (AC3) and the number of AC3-positive cells was measured via immunofluorescence microscopy. […]

In series [3] the test system is MEC-1 cells. The series can be described thus: Micronuclei assay. Particulars: 100 nM for 3 days. In kind it is cell-based, human.
Series [4] concerns U2OS cells. Briefly: DR-GFP reporter assay (HR repair of endonuclease generated DSB). In kind it is cell-based, human. Particulars: 100 nM or 1 μM.
Series [5] relates to AID−/− or p53−/− primary mouse B cells. The series can be described thus: Micronuclei assay. In kind it is cell-based. Particulars: 100 nM, 3 days.
Series [6] concerns primary B-cells (AID+). Briefly: Dose response in primary B-cells (AID+). In kind it is cell-based. Particulars: FIG. 10. The protocol: Dose responses for C-1523 (blue) and C-1523-1a (red) in primary B-cells (AID+) was determined (FIG. 10).
In series [7] the test system is B cells. The series can be described thus: Western Blot of apoptotic markers PARP-1 and caspase-9. In kind it is cell-based. The protocol:
Cell death mediated by C-1523 is p53-dependent. It was hypothesized that AID-dependent cytotoxicity induced by C-1523 would be associated with p53-mediated apoptosis. To test the importance of p53, a central regulator of cellular responses to DNA damage, viability was measured in mouse primary B-cells from Trp53+/+ versus Trp53−/− mice following exposure to C-1523. […] Caspase 3 activation, a marker of apoptotic cell death, was measured in C-1523 treated B-cells. B-cells were stained with an antibody that recognizes cleaved, activated caspase-3 (AC3) and the number of AC3-positive cells was measured via immunofluorescence microscopy. Following 10 Gy of ionizing irradiation Trp53+/+(WT), but not Trp53−/− cultures show a >30-fold increase in the percentage of AC3+ cells, confirming Trp53 dependent apoptosis in these cells after DNA damage. […] In order to more completely rule out apoptosis as the mode of cell death following C-1523 treatment in B cells, the expression of other common markers of apoptotic induction was examined via Western Blot.

For series [8], the system named is primary splenic B-cells from WT (AID-expressing) mice. Briefly: Expansion and viability of activated primary splenic B-cells.
The test system of series [9] is primary splenic B-cells from AID−/− mice. The description is as above. The note with it: 50-250 nM, four days, αCD40+IL-4 activation.
The subject of series [10] is CH12-F3 cells. The series can be described thus: Radiosensitivity (viability after ionizing irradiation). In kind it is cell-based, mouse. Particulars: 50 nM, 100 nM, or 150 nM; 0 or 2.5Gy. The protocol: FIG. 13A depicts a viability analysis of C-1523-treated CH12-F3 cells 24 h after 0 or 2.5 Gy IR. Data are normalized to the fraction of cells for each IR dose that received DMSO vehicle only; error bars represent the SEM for three independent experiments. FIG. 13B depicts detection of RAD51 by immunofluorescence in primary mouse B cells 24 h after 0 or 2.5 Gy IR and treatment with C-1523 (100 nM) or vehicle. RAD51 staining is in red, nuclear DNA (DAPI-stained) is in blue. Scale bar: 10 μM. FIG. 13C depicts the quantification of cells with nuclear RAD51 (RAD51+) from FIG. 13B. Error bars represent the SEM for three independent experiments. FIG. 13D depicts the quantitation of RAD51 expression in nuclear and cytoplasmic fractions as determined by Western Blot. Values represent the average of three independent experiments and error bars are the SEM. FIG. 13E depicts the immunofluorescent detection of NF-κB localization in primary murine B cells. […] FIG. 13F depicts the quantitation of nuclear NF-κB staining from FIG. 13E. […]
C-1523 disrupts RAD51 nucleocytoplasmic distribution and damage induced relocalization. To assess the DNA repair inhibitory activity of C-1523, radiosensitivity was measured in the mouse leukemia cell line, CH12-F3, with or without C-1523. […] Cells were allowed to recover in culture in the presence of C-1523 (or vehicle control) and viable cells were quantified. […]

Molecules are shown by their SMILES. Entries after “also recorded” stand apart in the source; their conditions may differ.

With `CC(=O)Nc1ccc(/C=C/c2ccc(NC(=S)NC(C)C)cc2S(=O)(=O)O)c(S(=O)(=O)O)c1` [C-1523, (E)-5-acetamido-2-(4-(3-isopropylthioureido)-2-sulfonatostyryl)benzenesulfonate], in series [1], the “median number of SCE events per chromosome” value was “significantly reduced”. In series [2], the “caspase 3 activation” value is listed as “did not significantly induce caspase 3 activation”. Besides, for the setting “in vivo”, the “acute side effects relative to DIDS” value is “no increased acute side effects” and the acute toxicity result was “almost no acute toxicity”. Besides, the “tolerance to prolonged drug exposure” value (single and multiple dose) is recorded as “excellent tolerance”. Further, in [3], the “micronuclei in treated cells versus vehicle” value is on record as “approximately 3.5 fold”. Further, the “change in GFP-positive cells” value in [4] is on record as “no significant change”. The fraction of micronuclei entry in series [5] was “no increase in the fraction of micronuclei”. Further, the “concentration above which dose response is inverted” value in series [6] is “above 100 nM”. Besides, the “cleavage of PARP-1 or caspase-9” value in [7] (2 days following activation) was “no cleavage of PARP-1 or caspase-9 was observed”. In series [7] (3 days), the “cleaved PARP-1 and caspase-9” value is on record as “not due to C-1523 treatment specifically”. Moreover, in series [8], the “dependence of induced cell death” value was “both AID and Trp53 dependent”. In addition, the “shape of dose response” value in series [8] (1 to 1000 nM) was “biphasic response”. The B-cell viability result in [8] (50, 100, 150, 200, or 250 nM, 3 days, Trypan blue) is on record as “dose-dependent reduction in B-cell viability; also recorded: dose dependent reduction in B-cell viability”. For the same molecule, the cellular expansion entry in series [8] (50-250 nM, four days, αCD40+IL-4 activation) is “selectively suppressed cellular expansion”. The “PI+ cells (cell death)” value in series [8] (day 4, flow cytometry) is recorded as “significant increase in PI+ cells”. For the same molecule, the cellular expansion result in series [9] is “expanded identically to vehicle-treated controls”. Also, the “sensitivity to ionizing irradiation” value in series [10] is on record as “sensitivity to ionizing irradiation at every concentration tested”.
